The source of these data is patent US20240124503A1, “HETEROAROMATIC PHOSPHONIUM SALTS AND THEIR USE TREATING CANCER” (FLORATEK PHARMA S.A., priority 2021, published 2024).

What all share (type): cell-based
The subject of one assay is OVXF 899. The experiment in a line: Cell viability assay, OVXF 899. The note with it: ovarian carcinoma OVXF 899. The method, then: (§1) Antitumor activity of the compounds and doxorubicin as a positive control was assessed by using the CellTiter-Blue Cell Viability Assay (Promega, #G8082) or CellTiter-Glow® Luminescent Cell Viability assay (Promega #G7572) according to the manufacturer's instructions. The compounds were tested at 5 or 6 concentrations in half-log increments (highest concentration 30 μM or 100 μM) in duplicate or triplicate well conditions.
(§2) Tumor cells were grown at 37° C. in a humidified atmosphere with 5% CO2 in RPMI 1640 or DMEM medium, supplemented with 10% (v/v) fetal calf serum and 50 μg/ml gentamicin for up to 20 passages, and were passaged once or twice weekly. Cells were harvested using TrypLE or PBS buffer containing 1 mM EDTA, and the percentage of viable cells was determined using a CASY Model TI cell counter (OMNI Life Science). Cells were harvested from exponential phase cultures, counted and plated in 96 well flat-bottom microtiter plates at a cell density depending on the cell line's growth rate (4,000-20,000 cells/well depending on the cell line's growth rate, up to 60,000 for hematological cancer cell lines) in RPMI 1640 or DMEM medium supplemented with 10% (v/v) fetal calf serum and 50 μg/ml gentamicin (140 μl/well). […] Viability of cells was quantified by the CellTiter-Blue® cell viability assay (Promega G8081) or CellTiter-Glow® Luminescent Cell Viability assay (Promega #G7572). […]

For the next assay, the system named is LU-01-0027. Nature of the assay: Cell viability, lung PDX LU-01-0027. The method, then:
(§3) PDX-derived cell cultures were obtained from tumors explanted from mice and isolated by mechanical and enzymatic dissociation. […] Cells were harvested and seeded in 96-wells plates at a density of 1.25 to 5×10^3 cells/well for cytotoxicity assays. Cells were incubated 48 h at 37° C. prior to addition of test molecules and vehicle (DMSO, 0.1%) at desired final concentrations. Cell viability was assessed before drugs' addition (To) and 5 days after test molecules addition by measuring ATP cell content using CellTiter-Glo® Luminescent Cell Viability Assay (Promega) according to the manufacturer's instructions. Luciferase activity was measured on a luminometer (PerkinElmer® EnVision™). Each concentration of compounds was tested in triplicate.
(§4) Viability was calculated as a percentage of ATP value compared to vehicle treated controls.
(§5) For PDX primary cell cultures, the tumour tissue was washed with PBS containing antibiotic-antimycotic and non-tumour tissue and necrotic tumour tissues were separated. The tumour tissue was transferred to a new dish and cut into 1˜2 mm^3 fragments, resuspended in RPMI-1640 medium and centrifuged at 1,200 rpm for 6 min at room temperature. The pelleted material was resuspended with 15 mL of Tumour Cell Digestion Solution and incubated at 37° C. for 1 hour with agitation. […]

For the next assay, the system named is ST-02-0173. The experiment in a line: Cell viability, stomach PDX ST-02-0173. The method, then:
as §3, §4, §5

Another assay deals with LY-24-0340. The experiment in a line: Cell viability, lymphoma PDX LY-24-0340. As for the experimental part: as §3, §4
(§6) For PDX primary cell cultures, the tumour tissue was washed with PBS containing antibiotic-antimycotic and non-tumour tissue and necrotic tumour tissues were separated. The tumour tissue was transferred to a new dish and cut into 1˜2 mm^3 fragments, resuspended in RPMI-1640 medium and centrifuged at 1,200 rpm for 6 min at room temperature. The pelleted material was resuspended with 15 mL of Tumour Cell Digestion Solution and incubated at 37° C. for 1 hour with agitation. Following further addition of media, centrifugation and passage through a 70 μm cell strainer, the homogenous cell mixture was layered onto 15 mL of Ficoll-Paque PLUS in a 50 mL conical tube and centrifuged for 15 min at 1,600 rpm. The interface cells were collected, washed with media, separated by centrifugation at 1,200 rpm. The cell pellet was resuspended in serum free media supplemented with growth factors. 10,000 cells/wells were plated in a 96 well plate and incubated at 37° C., 5% CO2, 95% air and 100% relative humidity overnight. The cytotoxicity assay was conducted as above.
(§7) Sigmoidal concentration-response curves were fitted to the data points (test-versus-control, T/C values) obtained for each tumor model using GraphPad prism 5.02 software.

A further assay relates to ST-02-0007. The experiment in a line: Cell viability, stomach PDX ST-02-0007. As for the experimental part:
as §3, §4, §5

The subject of a further assay is LU-01-0604. Nature of the assay: Cell viability, lung PDX LU-01-0604. The method, then:
as §3, §4, §5

Another assay deals with LU-01-0025. Nature of the assay: Cell viability, lung PDX LU-01-0025. The method, then:
as §3, §4, §5

The subject of the next assay is ME-21-0028. Nature of the assay: Cell viability, skin melanoma PDX ME-21-0028. As for the experimental part:
as §3, §4, §6, §7

The subject of a further assay is ES-06-0122. Nature of the assay: Cell viability, esophagus PDX ES-06-0122. The method, then: as §3, §4, §5
The subject of another assay is BR-05-0399. Nature of the assay: Cell viability, breast PDX BR-05-0399. The method, then: as §3, §4, §5
The subject of the next assay is KI-12-0062. Nature of the assay: Cell viability, kidney PDX KI-12-0062. As for the experimental part: as §3, §4, §6, §7
Another assay deals with SF-268. Nature of the assay: Cell viability assay, SF-268. Particulars: brain carcinoma cell line SF-268. The method, then:
as §1, §2

A further assay concerns BR-05-0014E. Nature of the assay: Cell viability, breast PDX BR-05-0014E. The method, then: as §3, §4, §5
The next assay concerns CH-17-0091. Nature of the assay: Cell viability, bile duct PDX CH-17-0091. As for the experimental part: as §3, §4, §5
In another assay the test system is ES-06-0002. Nature of the assay: Cell viability, esophagus PDX ES-06-0002. The method, then:
as §3, §4, §5

A further assay has as its system PC-3. The experiment in a line: Cell viability assay, PC-3. Particulars: prostate carcinoma cell line PC-3. As for the experimental part: as §1, §2
The next assay relates to 22Rv1. Nature of the assay: Cell viability assay, 22Rv1. Particulars: prostate carcinoma cell line 22Rv1. As for the experimental part:
as §1, §2

A further assay concerns CO-04-0722. The experiment in a line: Cell viability, colon PDX CO-04-0722. As for the experimental part: as §3, §4, §5
The subject of the next assay is EN-11-0101. Nature of the assay: Cell viability, endometrial PDX EN-11-0101. The method, then:
as §3, §4, §6, §7

In a further assay the test system is CH-17-0098. The experiment in a line: Cell viability, bile duct PDX CH-17-0098. The method, then: as §3, §4, §5
The mark [1] stands for this setting: lymphoma PDX LY-24-0340, read-out: IC50.
The mark [2] stands for this setting: skin melanoma PDX ME-21-0028, read-out: IC50.
The mark [3] stands for this setting: kidney PDX KI-12-0062, read-out: IC50.
Where [4] appears, read: endometrial PDX EN-11-0101, read-out: IC50.

Where two headings read alike, the source gives them in different places.

`COc1c(O)ccc2c(=O)c(O)c(-c3ccc(CCCC[P+](c4ccccc4)(c4ccccc4)c4ccccc4)cc3)oc12` [SND190, (4-(4-(3,7-Dihydroxy-8-methoxy-4-oxo-4H1-chromen-2-yl)phenyl)butyl)triphenylphosphonium bromide]: the half-inhibitory concentration (IC50) in the assay with OVXF 899 is 8.76 µM; in the assay on LU-01-0027 it was 4 µM; with ST-02-0173 it was 11 µM; in the assay on LY-24-0340 (Table 16, read-out: IC50, lymphoma PDX growth), less than 5 µM; with LY-24-0340 (setting [1]), 3.8 µM; with ST-02-0007 it was 5.7 µM. Moreover, the IC50 with LU-01-0604 is 2 µM; with LU-01-0025, 0.6 µM; with ME-21-0028 (setting [2]) it was 2.2 µM; in the assay on ME-21-0028 (text summary of Table 21, read-out: IC50, skin melanoma PDX growth), less than 20 µM; in the assay on ES-06-0122 it was 6.5 µM; in the assay with BR-05-0399, 5.4 µM. Further, the concentration for half-maximal inhibition (IC50) in the assay on KI-12-0062 (setting [3]) was 15.1 µM; in the assay with KI-12-0062 (text summary of Table 11 (kidney PDX), read-out: IC50, kidney PDX growth), less than 20 µM; in the assay with SF-268 (Homo sapiens), 4.1 µM; in the assay on BR-05-0014E, 6.6 µM; with CH-17-0091, 4 µM; in the assay with ES-06-0002, 4.9 µM. The half-maximal inhibitory concentration (IC50) is 1.69 µM in the assay on PC-3 (Homo sapiens); 0.79 µM in the assay on 22Rv1 (Homo sapiens); 4.4 µM in the assay with CO-04-0722; less than 20 µM in the assay with EN-11-0101 (Table 8, read-out: IC50, endometrial PDX growth); 7.9 µM with EN-11-0101 (setting [4]); 4 µM in the assay on CH-17-0098.
As for `O=c1cc(-c2ccc(CCC[P+](c3ccccc3)(c3ccccc3)c3ccccc3)cc2)oc2c(O)c(O)ccc12` [SND200, (3-(4-(7,8-Dihydroxy-4-oxo-4H1-chromen-2-yl)phenyl)propyl)triphenylphosphonium bromide], the concentration for half-maximal inhibition (IC50) in the assay with OVXF 899 was 6.37 µM; in the assay with LU-01-0027, 1.8 µM; with ST-02-0173, 15.5 µM; with LY-24-0340 (setting [1]), 4 µM; with ST-02-0007, 9.4 µM; in the assay with LU-01-0604, 7.8 µM. Also, the IC50 with LU-01-0025 is 4.9 µM; with ME-21-0028 (setting [2]) it was 10.9 µM; with ES-06-0122, 8.8 µM; in the assay with BR-05-0399, 14.9 µM; with KI-12-0062 (setting [3]), 14.5 µM; with SF-268, 7.83 µM. Besides, the IC50 came out at 19 µM in the assay on BR-05-0014E; 9.5 µM in the assay on CH-17-0091; 11.6 µM in the assay on ES-06-0002; 0.3 µM in the assay on PC-3; 0.42 µM with 22Rv1; 9.8 µM in the assay on CO-04-0722. For the same compound, the IC50 in the assay with EN-11-0101 (setting [4]) was found to be 10.4 µM; in the assay on CH-17-0098, 7.5 µM.
